Test results: publication PMC6199744, “Development of Chemical Proteomics for the Folateome and Analysis of the Kinetoplastid Folateome” (ACS Infectious Diseases, 2018)
Read-outs that look alike come from different tables or passages of the source.

Legend:
Format in all cases: binding
[1] = target: T1, HeLa cell extract proteins (Homo sapiens, UniProt P40616)
T1 construct: endogenous in cells; host or cells: HeLa cell extract
T1 sequence (P40616 1-181): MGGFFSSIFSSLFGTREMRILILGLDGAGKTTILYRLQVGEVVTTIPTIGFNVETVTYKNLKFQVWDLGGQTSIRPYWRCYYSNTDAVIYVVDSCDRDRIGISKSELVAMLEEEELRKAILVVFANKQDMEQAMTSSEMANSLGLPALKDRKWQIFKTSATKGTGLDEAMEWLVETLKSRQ

[2] = target: T2, HeLa cell extract proteins (Homo sapiens, UniProt Q13011)
T2 construct: endogenous in cells; host or cells: HeLa cell extract
T2 sequence (Q13011 34-328): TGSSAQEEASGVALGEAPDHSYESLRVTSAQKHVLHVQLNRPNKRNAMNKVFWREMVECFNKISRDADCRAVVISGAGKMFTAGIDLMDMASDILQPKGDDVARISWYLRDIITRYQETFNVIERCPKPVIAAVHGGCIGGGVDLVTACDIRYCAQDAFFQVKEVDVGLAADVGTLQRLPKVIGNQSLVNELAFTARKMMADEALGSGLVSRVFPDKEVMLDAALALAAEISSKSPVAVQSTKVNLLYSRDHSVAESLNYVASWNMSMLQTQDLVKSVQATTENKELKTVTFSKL

[3] = target: T3, HeLa cell extract proteins (Homo sapiens, UniProt P07355)
T3 construct: endogenous in cells; host or cells: HeLa cell extract
T3 sequence (P07355 whole entry): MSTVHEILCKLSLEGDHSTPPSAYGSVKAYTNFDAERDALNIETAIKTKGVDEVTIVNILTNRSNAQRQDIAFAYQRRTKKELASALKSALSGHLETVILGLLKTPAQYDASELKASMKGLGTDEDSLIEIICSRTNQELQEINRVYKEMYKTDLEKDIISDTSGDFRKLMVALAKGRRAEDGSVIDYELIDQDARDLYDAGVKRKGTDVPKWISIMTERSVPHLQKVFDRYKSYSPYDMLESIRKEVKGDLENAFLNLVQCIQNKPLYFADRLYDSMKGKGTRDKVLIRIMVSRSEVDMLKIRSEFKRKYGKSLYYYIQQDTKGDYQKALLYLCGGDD

[4] = target: T4, HeLa cell extract proteins (Homo sapiens, UniProt O43592)
T4 construct: endogenous in cells; host or cells: HeLa cell extract
T4 sequence (O43592 1-962): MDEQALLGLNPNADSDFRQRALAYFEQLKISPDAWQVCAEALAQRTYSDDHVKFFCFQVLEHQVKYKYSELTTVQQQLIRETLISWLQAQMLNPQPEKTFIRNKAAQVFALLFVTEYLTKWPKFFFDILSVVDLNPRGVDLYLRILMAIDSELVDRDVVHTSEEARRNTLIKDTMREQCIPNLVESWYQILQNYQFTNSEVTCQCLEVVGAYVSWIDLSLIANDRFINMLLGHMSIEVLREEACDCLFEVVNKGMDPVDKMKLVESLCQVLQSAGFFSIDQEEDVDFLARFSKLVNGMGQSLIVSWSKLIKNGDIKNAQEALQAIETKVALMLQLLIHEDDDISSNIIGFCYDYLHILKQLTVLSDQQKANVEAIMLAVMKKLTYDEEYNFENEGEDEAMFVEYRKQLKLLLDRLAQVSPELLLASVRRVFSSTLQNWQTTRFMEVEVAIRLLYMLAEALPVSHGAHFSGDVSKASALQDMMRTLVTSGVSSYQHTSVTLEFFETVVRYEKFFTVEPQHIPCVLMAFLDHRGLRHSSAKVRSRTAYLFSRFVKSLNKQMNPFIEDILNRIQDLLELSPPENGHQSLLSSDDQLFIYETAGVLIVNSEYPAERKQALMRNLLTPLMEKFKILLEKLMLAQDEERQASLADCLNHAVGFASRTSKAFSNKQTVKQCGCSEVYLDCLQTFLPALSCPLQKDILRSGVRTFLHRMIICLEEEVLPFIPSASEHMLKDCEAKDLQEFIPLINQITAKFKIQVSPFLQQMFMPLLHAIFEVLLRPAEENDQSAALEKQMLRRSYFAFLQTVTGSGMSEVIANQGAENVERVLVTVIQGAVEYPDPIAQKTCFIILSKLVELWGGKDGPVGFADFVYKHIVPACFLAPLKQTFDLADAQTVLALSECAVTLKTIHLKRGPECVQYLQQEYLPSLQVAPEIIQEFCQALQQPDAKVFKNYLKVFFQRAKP

[5] = target: T5, HeLa cell extract proteins (Homo sapiens, UniProt P29401)
T5 construct: endogenous in cells; host or cells: HeLa cell extract
T5 sequence (P29401 1-623): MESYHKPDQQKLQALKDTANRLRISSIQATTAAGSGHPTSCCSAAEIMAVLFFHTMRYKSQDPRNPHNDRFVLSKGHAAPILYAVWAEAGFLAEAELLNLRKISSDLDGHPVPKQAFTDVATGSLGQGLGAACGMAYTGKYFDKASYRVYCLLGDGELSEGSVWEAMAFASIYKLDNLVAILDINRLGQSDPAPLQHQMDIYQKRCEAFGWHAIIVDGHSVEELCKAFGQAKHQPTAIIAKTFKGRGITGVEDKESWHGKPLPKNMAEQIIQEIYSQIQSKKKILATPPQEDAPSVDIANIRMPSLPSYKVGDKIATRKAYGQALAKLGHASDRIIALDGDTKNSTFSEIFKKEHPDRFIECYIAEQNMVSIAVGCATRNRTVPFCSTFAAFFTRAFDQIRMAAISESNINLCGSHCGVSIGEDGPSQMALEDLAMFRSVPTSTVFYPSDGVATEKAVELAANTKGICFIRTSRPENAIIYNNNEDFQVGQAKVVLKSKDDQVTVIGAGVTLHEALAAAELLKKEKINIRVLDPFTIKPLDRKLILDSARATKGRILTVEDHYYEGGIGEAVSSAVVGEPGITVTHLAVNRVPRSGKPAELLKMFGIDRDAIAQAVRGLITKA

[6] = target: T6, HeLa cell extract proteins (Homo sapiens, UniProt Q00325)
T6 construct: endogenous in cells; host or cells: HeLa cell extract
T6 sequence (Q00325 50-362): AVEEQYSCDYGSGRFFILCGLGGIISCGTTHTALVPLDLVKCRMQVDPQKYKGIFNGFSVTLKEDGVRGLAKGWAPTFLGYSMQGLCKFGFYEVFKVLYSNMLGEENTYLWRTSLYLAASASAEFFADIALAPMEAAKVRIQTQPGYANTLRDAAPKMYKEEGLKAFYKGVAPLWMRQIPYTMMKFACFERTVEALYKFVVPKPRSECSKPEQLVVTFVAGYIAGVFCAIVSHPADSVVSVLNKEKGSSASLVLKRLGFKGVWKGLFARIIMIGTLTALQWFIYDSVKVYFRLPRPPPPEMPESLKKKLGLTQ

[7] = target: T7, HeLa cell extract proteins (Homo sapiens, UniProt P26641)
T7 construct: endogenous in cells; host or cells: HeLa cell extract
T7 sequence (P26641 whole entry): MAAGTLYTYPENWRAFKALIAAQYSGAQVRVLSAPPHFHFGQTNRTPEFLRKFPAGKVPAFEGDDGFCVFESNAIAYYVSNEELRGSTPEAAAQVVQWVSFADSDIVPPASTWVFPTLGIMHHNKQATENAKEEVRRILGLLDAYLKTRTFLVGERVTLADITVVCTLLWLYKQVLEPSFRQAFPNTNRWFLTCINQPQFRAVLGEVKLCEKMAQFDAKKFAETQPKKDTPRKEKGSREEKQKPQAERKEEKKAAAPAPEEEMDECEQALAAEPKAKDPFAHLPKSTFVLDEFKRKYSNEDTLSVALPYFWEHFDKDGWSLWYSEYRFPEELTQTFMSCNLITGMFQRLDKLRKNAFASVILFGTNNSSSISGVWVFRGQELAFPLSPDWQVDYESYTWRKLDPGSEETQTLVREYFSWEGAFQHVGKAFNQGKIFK

[8] = target: T8, HeLa cell extract proteins (Homo sapiens, UniProt Q6UXN9)
T8 construct: endogenous in cells; host or cells: HeLa cell extract
T8 sequence (Q6UXN9 whole entry): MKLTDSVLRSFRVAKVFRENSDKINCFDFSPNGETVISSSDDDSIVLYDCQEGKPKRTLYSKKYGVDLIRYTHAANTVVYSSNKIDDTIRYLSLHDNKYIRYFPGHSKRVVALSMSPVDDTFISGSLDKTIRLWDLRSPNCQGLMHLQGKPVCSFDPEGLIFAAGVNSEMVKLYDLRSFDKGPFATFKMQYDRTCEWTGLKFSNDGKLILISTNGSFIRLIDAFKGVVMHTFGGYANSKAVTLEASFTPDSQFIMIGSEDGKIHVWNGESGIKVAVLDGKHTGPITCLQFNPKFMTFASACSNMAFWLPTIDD

[9] = target: T9, HeLa cell extract proteins (Homo sapiens, UniProt Q9Y6K9)
T9 construct: endogenous in cells; host or cells: HeLa cell extract
T9 sequence (Q9Y6K9 whole entry): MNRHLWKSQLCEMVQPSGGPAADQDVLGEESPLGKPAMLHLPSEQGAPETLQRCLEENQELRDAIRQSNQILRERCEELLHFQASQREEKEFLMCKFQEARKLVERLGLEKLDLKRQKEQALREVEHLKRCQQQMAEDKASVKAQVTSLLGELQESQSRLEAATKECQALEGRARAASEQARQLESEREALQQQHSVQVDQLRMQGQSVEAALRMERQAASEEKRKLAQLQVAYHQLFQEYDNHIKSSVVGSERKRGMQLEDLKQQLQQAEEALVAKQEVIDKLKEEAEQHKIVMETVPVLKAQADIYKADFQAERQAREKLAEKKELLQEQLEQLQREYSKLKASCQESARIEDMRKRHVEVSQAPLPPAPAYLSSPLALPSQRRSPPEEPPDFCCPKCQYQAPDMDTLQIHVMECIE

[10] = HeLa, protein IKBKG (INHIBITOR OF KAPPAB KINASE GAMMA)

Compound	fold changes relative to vehicle control ([1]; captured protein ARL1, HeLa)	fold changes relative to vehicle control ([2]; HeLa, protein ECH1)	fold changes relative to vehicle control ([3]; protein ANXA2, HeLa)	fold changes relative to vehicle control ([4]; HeLa, protein XPOT)	fold changes relative to vehicle control ([5]; protein TKT, HeLa)	fold changes relative to vehicle control ([6]; HeLa, protein SLC25A3)	fold changes relative to vehicle control ([7]; protein EEF1G, HeLa)	fold changes relative to vehicle control ([8]; captured protein WDR82, HeLa)	fold changes relative to vehicle control ([9]; captured protein IKBKG, HeLa)	fold changes relative to vehicle control ([1]; protein ARL1, HeLa)	fold changes relative to vehicle control ([3]; HeLa, protein ANXA2)	fold changes relative to vehicle control ([5]; HeLa, protein TKT)	fold changes relative to vehicle control ([7]; HeLa, protein EEF1G)	fold changes relative to vehicle control ([8]; HeLa, captured protein WDR82)	fold changes relative to vehicle control [9, 10]	further results
Nc1nc2cccc(-c3ccccc3)c2n1Cc1ccc(Cl)c(Cl)c1 [compound 3]	1.06	1	0.9	1.08	0.9	1	0.94	0.9	0.9							
CCCCCCOc1ccc(Cc2cnc(N)nc2N)cc1 [compound 1]	0.95	0.95	1.18	0.95	1.41	0.98	1.31	0.75	1.08							
NCCCNc1ccc(C(=O)NC(CCC(=O)O)C(=O)O)cc1 (stereo not drawn) [compound 7]		0.99		0.99		1.11				1.06	0.97	0.99	0.94	0.97	1.15	
CCCCCCOc1cccc(Cc2cnc(N)nc2N)c1 [compound 2]	1.09	0.91	1.87	1.02	2.08	0.96	1.67	1.01	1.1							
NCCOCCOCC(=O)Nc1nc2ncc(CNc3ccc(C(=O)NC(CCC(=O)O)C(=O)O)cc3)nc2c(=O)[nH]1 (stereo not drawn) [compound 6]		0.96		0.94		1.04				0.9	1.32	1.26	1.15	0.89	0.96	
Nc1nc2[nH]cc(CCc3ccc(C(=O)N[C@@H](CCC(=O)O)C(=O)O)cc3)c2c(=O)[nH]1 [PTX, pemetrexed]																fold changes relative to vehicle control [1]: 0.77; fold changes relative to vehicle control [2]: 1.01; fold changes relative to vehicle control [3]: 1.1; fold changes relative to vehicle control [4]: 0.84; fold changes relative to vehicle control [5]: 1.2; fold changes relative to vehicle control [6]: 0.98; fold changes relative to vehicle control [7]: 1.05; fold changes relative to vehicle control [8]: 0.72; fold changes relative to vehicle control [9]: 1.02
Nc1nc2c(c(=O)[nH]1)N(C=O)C(CNc1ccc(C(=O)N[C@@H](CCC(=O)O)C(=O)O)cc1)CN2 (stereo partly drawn) [LEU, leucovorin]		1.04		0.94		0.98				0.8	1	1.12	1	0.8	0.98	
